# Laboratory results as given in ChEMBL document CHEMBL2311359, “Antiproliferative and apoptotic effects of the oxidative dimerization product of methyl caffeate on human breast cancer cells” (Bioorg Med Chem Lett, 2013).
# The source made the active and inactive calls. No cut-off for these calls is given here.
# Legend:
# MCF7 [1] = experiment: Growth inhibition of human MCF7 cells at 10 uM after 48 hrs; assay type: functional
# [2] = Drug degradation in culture medium assessed as decarboxylation; assay type: physicochemical
# [3] = Drug degradation in culture medium assessed as dehydration; assay type: physicochemical
# T47D = experiment: Antiproliferative activity against human T47D cells after 5 days by MTT assay; assay type: functional, cell-based; details: 120 h
# MDA-MB-231 [4] = experiment: Induction of apoptosis in human MDA-MB-231 cells assessed as pyknosis at 1 to 10 uM after 48 hrs by Hoechst-staining method in presence of fetal calf serum; assay type: functional, cell-based
# MDA-MB-231 [5] = experiment: Induction of cell cycle arrest in human MDA-MB-231 cells assessed as decrease in G2/M phase cells at 5 uM after 48 hrs by flow cytometric analysis relative to control; assay type: functional, cell-based
# MDA-MB-231 [6] = experiment: Induction of apoptosis in human MDA-MB-231 cells after 48 hrs by Hoechst-staining method in absence of fetal calf serum; assay type: functional, cell-based
# MCF7 [7] = experiment: Growth inhibition of human MCF7 cells after 48 hrs in absence of fetal calf serum; assay type: functional, cell-based; details: MCF7, 48 h
# MDA-MB-231 [8] = experiment: Induction of apoptosis in human MDA-MB-231 cells at 10 uM after 48 hrs by Hoechst-staining method in presence of fetal calf serum; assay type: functional
# MDA-MB-231 [9] = experiment: Induction of cell cycle arrest in human MDA-MB-231 cells assessed as decrease in G0/G1 phase cells at 5 uM after 48 hrs by flow cytometric analysis relative to control; assay type: functional, cell-based
# MCF7 [10] = experiment: Induction of apoptosis in human MCF7 cells assessed as pyknosis at 1 to 10 uM after 48 hrs by Hoechst-staining method in absence of fetal calf serum; assay type: functional, cell-based
# MCF7 [11] = experiment: Induction of cell cycle arrest in human MCF7 cells assessed as subG0 phase cells at 5 uM after 48 hrs by propidium iodide-staining method in presence of fetal calf serum relative to control; assay type: functional
# MCF7 [12] = experiment: Induction of apoptosis in human MCF7 cells after 48 hrs by Hoechst-staining method in absence of fetal calf serum; assay type: functional, cell-based
# MCF7 [13] = experiment: Induction of cell cycle arrest in human MCF7 cells assessed as S phase cells at 5 uM after 48 hrs by flow cytometric analysis (reference value: 46.6%); assay type: functional
# MCF7 [14] = experiment: Growth inhibition of human MCF7 cells after 48 hrs in presence of fetal calf serum; assay type: functional, cell-based; details: MCF7, 48 h
# MCF7 [15] = experiment: Induction of apoptosis in human MCF7 cells after 48 hrs by Hoechst-staining method in presence of fetal calf serum; assay type: functional, cell-based
# MDA-MB-231 [16] = experiment: Induction of apoptosis in human MDA-MB-231 cells assessed as pyknosis at 1 to 10 uM after 48 hrs by Hoechst-staining method in absence of fetal calf serum; assay type: functional, cell-based
# MDA-MB-231 [17] = experiment: Induction of cell cycle arrest in human MDA-MB-231 cells assessed as subG0 phase cells at 5 uM after 48 hrs by propidium iodide-staining method in absence of fetal calf serum relative to control; assay type: functional
# MDA-MB-231 [18] = experiment: Induction of cell cycle arrest in human MDA-MB-231 cells assessed as subG0 phase cells at 5 uM after 48 hrs by propidium iodide-staining method in presence of fetal calf serum relative to control; assay type: functional
# MDA-MB-231 [19] = experiment: Induction of cell cycle arrest in human MDA-MB-231 cells assessed as S phase cells at 5 uM after 48 hrs by flow cytometric analysis (reference value: 40.4%); assay type: functional
# MCF7 [20] = experiment: Induction of apoptosis in human MCF7 cells at 10 uM after 48 hrs by Hoechst-staining method in presence of fetal calf serum; assay type: functional
# MCF7 [21] = experiment: Induction of cell cycle arrest in human MCF7 cells assessed as subG0 phase cells at 5 uM after 48 hrs by propidium iodide-staining method in absence of fetal calf serum relative to control; assay type: functional
# MCF7 [22] = experiment: Induction of apoptosis in human MCF7 cells assessed as apoptotic bubbling at 1 to 10 uM after 48 hrs by Hoechst-staining method in presence of fetal calf serum; assay type: functional, cell-based
# MDA-MB-231 [23] = experiment: Induction of apoptosis in human MDA-MB-231 cells assessed as apoptotic bubbling at 1 to 10 uM after 48 hrs by Hoechst-staining method in presence of fetal calf serum; assay type: functional, cell-based
# MDA-MB-231 [24] = experiment: Induction of apoptosis in human MDA-MB-231 cells after 48 hrs by Hoechst-staining method in presence of fetal calf serum; assay type: functional, cell-based
# MDA-MB-231 [25] = experiment: Induction of apoptosis in human MDA-MB-231 cells assessed as apoptotic bubbling at 1 to 10 uM after 48 hrs by Hoechst-staining method in absence of fetal calf serum; assay type: functional, cell-based
# MDA-MB-231 [26] = experiment: Growth inhibition of human MDA-MB-231 cells after 48 hrs in absence of fetal calf serum; assay type: functional, cell-based; details: MDA-MB-231, 48 h
# MCF7 [27] = experiment: Induction of cell cycle arrest in human MCF7 cells assessed as S/G2 phase cells at 5 uM after 48 hrs by flow cytometric analysis (reference value: 17.8%); assay type: functional
# MCF7 [28] = experiment: Induction of apoptosis in human MCF7 cells assessed as apoptotic bubbling at 1 to 10 uM after 48 hrs by Hoechst-staining method in absence of fetal calf serum; assay type: functional, cell-based
# MCF7 [29] = experiment: Induction of apoptosis in human MCF7 cells assessed as pyknosis at 1 to 10 uM after 48 hrs by Hoechst-staining method in presence of fetal calf serum; assay type: functional, cell-based
# MCF7 [30] = experiment: Induction of cell cycle arrest in human MCF7 cells assessed as G0/G1 phase cells at 5 uM after 48 hrs by flow cytometric analysis (reference value: 35.6%); assay type: functional
# MDA-MB-231 [31] = experiment: Growth inhibition of human MDA-MB-231 cells after 48 hrs in presence of fetal calf serum; assay type: functional, cell-based; details: MDA-MB-231, 48 h
structure (smiles),measurement,setting,value
CCOC(=O)C1=Cc2cc(O)c(O)cc2[C@@H](c2ccc(O)cc2)[C@@H]1C(=O)OCC (relative stereo),growth inhibition (GI),MCF7 [1],Active
COC(=O)C1=Cc2cc(OC)c(O)cc2[C@@H](c2ccc(O)c(OC)c2)[C@@H]1C(=O)OC,growth inhibition (GI),MCF7 [1],inactive
O=C(O)C1=Cc2cc(O)c(O)cc2[C@@H](c2ccc(O)cc2)[C@@H]1C(=O)O (relative stereo),Stability,[2],Unstable
same,growth inhibition (GI),MCF7 [1],Active
COC(=O)C1C(O)c2cc(OC)c(O)c(OC)c2[C@@H](c2cc(OC)c(O)c(OC)c2)[C@@H]1C(=O)OC (stereo partly drawn),Stability,[3],Unstable
same,growth inhibition (GI),MCF7 [1],Active
COC(=O)C1=Cc2cc(OC)c(O)c(C)c2[C@@H](c2cc(C)c(O)c(OC)c2)[C@@H]1C(=O)OC,growth inhibition (GI),MCF7 [1],inactive
O=C(O)/C=C/c1ccc(O)c(O)c1 [CAFFEIC ACID],IC50,T47D,2 nM
COC(=O)C1=Cc2cc(O)c(O)cc2[C@@H](c2ccc(O)c(O)c2)[C@@H]1C(=O)OC,Activity,MDA-MB-231 [4],Active
same,Activity,MDA-MB-231 [5],Active
same,Activity,MDA-MB-231 [6],Dose-dependent effect
same,IC50,MCF7 [7],1000 nM
same,Activity,MDA-MB-231 [8],25%
same,Activity,MDA-MB-231 [9],Active
same,Activity,MCF7 [10],Active
same,Activity,MCF7 [11],20%
same,Activity,MCF7 [12],Dose-dependent effect
same,Activity,MCF7 [13],34.7%
same,IC50,MCF7 [14],1000 nM
same,Activity,MCF7 [15],Dose-dependent effect
same,Activity,MDA-MB-231 [16],Active
same,Activity,MDA-MB-231 [17],20%
same,Activity,MDA-MB-231 [18],20%
same,inhibition of growth at 10 µM,"MCF7 [1]; MCF7, 48 h, read-out: GI",82%
same,Activity,MDA-MB-231 [19],56.1%
same,Activity,MCF7 [20],25%
same,Activity,MCF7 [21],20%
same,Activity,MCF7 [22],Active
same,Activity,MDA-MB-231 [23],Active
same,Activity,MDA-MB-231 [24],Dose-dependent effect
same,Activity,MDA-MB-231 [25],Active
same,IC50,MDA-MB-231 [26],5000 nM
same,Activity,MCF7 [27],17%
same,Activity,MCF7 [28],Active
same,Activity,MCF7 [29],Active
same,Activity,MCF7 [30],29.4%
same,IC50,MDA-MB-231 [31],5000 nM
CCOC(=O)C1=Cc2cc(O)c(O)cc2[C@@H](c2ccc(O)cc2)[C@@H]1C(=O)O (relative stereo),growth inhibition (GI),MCF7 [1],Active
